Assay results: patent US9504747B2, “Lipids and lipid compositions for the delivery of active agents” (Novartis AG, priority 2013, dated 2016)

Legend:
[1] = tested on: PLK-1 mRNA; assay: LS411N Xenograft Assay with PLK1-424 siRNA lipid nanoparticles; assay type: in vivo, Female Nu/Nu mice; conditions: percent knock down of PLK-1 mRNA in tumor vs control, 3 mg/kg IV daily for three days, 24 h post last injection
Experimental: Female Nu/Nu mice (6-8 weeks old) were implanted subcutaneously with 5×10^6 LS411N cells. Tumor growth was monitored by caliper measurement before treatment initiation. Mice bearing 150-250 mm^3 subcutaneous tumors were randomized and enrolled in the study. The stock siRNA formulations were diluted to […] with PBS for dosing. Animals enrolled in different groups received a single daily bolus IV injection of 3 mg/kg siRNA for three days. Tumors were harvested 24 hours post last injection to assess target gene regulation by qRT-PCR.
Lipid nanoparticles comprising lipid compounds of formula (I) and the PLK1-424 siRNA duplex sequence listed above were tested in the LS411N Xenograft Assay. The results of this assay are given in Table 5 below as a percent knock down of PLK-1 mRNA as compared to the control when administered as a single daily dose for three days at a dose of 3 mg/kg.

[2] = Particle size of the lipid nanoparticle (dynamic light scattering, Malvern Zetasizer); assay type: physicochemical; conditions: Z-average
Excerpt: The lipid nanoparticles have a size of about 1 to about 2,500 nm, about 1 to about 1,500 nm, about 1 to about 1,000 nm, in a sub-embodiment about 50 to about 600 nm, in a sub-embodiment about 50 to about 400 nm, in a sub-embodiment about 50 to about 250 nm, and in a sub-embodiment about 50 to about 150 nm. Unless indicated otherwise, all sizes referred to herein are the average sizes (diameters) of the fully formed nanoparticle, as measured by dynamic light scattering on a Malvern Zetasizer. The nanoparticle sample is diluted in phosphate buffered saline (PBS) so that the count rate is approximately 200-400 kcts. The data is presented as a weighted average of the intensity measure. The lipid nanoparticles (LNPs) were formed by mixing equal volumes of lipids dissolved in alcohol with siRNA dissolved in a citrate buffer by an impinging jet process. […] The siRNA to total lipid ratio is approximately 0.05 (wt/wt). Where a LNP formulation contains four lipid components, the molar ratios correspond to the type of lipid as it appears in the first four columns of the table, in the order that they appear. The ratio of the lipids ranges from 20 to 70 mole percent for the cationic lipid with a target of 40-60, the mole percent of helper lipid ranges from 20 to 70 with a target of 30 to 50, the mole percent of neutral lipid ranges from 0-30, the mole percent of PEG lipid has a range from 1 to 6 with a target of 2 to 5. The concentration of siRNA solution ranges from 0.7 to 1.0 mg/mL with a target of 0.8 to 0.9 mg/mL in a sodium citrate: sodium chloride buffer pH 4-6, with a target of 4.5-5.5. The LNPs are formed by mixing equal volumes of lipid solution in ethanol with siRNA dissolved in a citrate buffer by an impinging jet process through a mixing device with ID ranging from 0.25 to 2.0 mm at a flow rate from 10 to 640 mL/min. The mixed LNP solution is held at room temperature for 0-24 hrs prior to a dilution step. […] The final product is sterile filtered and stored at 4° C. Unless indicated otherwise, all particle size measurements referred to in Tables 4 and 5 are the Z-average particle size of the fully formed nanoparticle, as measured by dynamic light scattering on a Malvern Zetasizer. The nanoparticle sample was diluted in phosphate buffered saline (PBS) so that the count rate is approximately 200-400 kcts.

[3] = pKa measurement of the cationic lipid (TNS fluorescence vs pH); assay type: physicochemical; conditions: probe TNS (fluorescent probe), pKa of the cationic lipid of formula (I)
Outline: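 Lipid (2 mM ethanol stock) mixed with TNS probe (0.3 mM stock) and diluted into twelve sodium phosphate/citric acid buffers of varying pH. TNS fluorescence read after background subtraction and normalized to the lowest-pH value. pKa taken as the pH at half-maximal normalized fluorescence on the smoothed curve, precise to about 0.1 units.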

[4] = Polydispersity index (PDI) of the lipid nanoparticle (dynamic light scattering); assay type: physicochemical
Outline: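 LNPs made by impinging-jet mixing of lipids in ethanol with siRNA in citrate buffer, pH 4-6, siRNA:total lipid ~0.05 wt/wt; sterile filtered, stored at 4° C. Samples diluted in PBS to ~200-400 kcts count rate before dynamic light scattering. PDI reported as intensity-weighted average of fully formed particles.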

[5] = Table 4, FVII siRNA LNP, Chol/DSPC/stealth lipid S010, molar ratio 45/44/9/2
[6] = Table 5, PLK1-424 siRNA LNP, Chol/DSPC/stealth lipid S010, 45/44/9/2
[7] = Table 4, FVII siRNA LNP, Chol/DSPC/stealth lipid S010, 45/44/9/2
[8] = Table 5, PLK1-424 siRNA LNP, stealth lipid S010, 45/44/9/2
[9] = Table 4, FVII siRNA LNP, Chol/DSPC/stealth lipid PEG-DMG, molar ratio 45/44/9/2
[10] = Table 4, FVII siRNA LNP, Chol/DSPC/stealth lipid PEG-DMG, 45/44/9/2
[11] = Table 5, PLK1-424 siRNA LNP, Chol/DSPC/stealth lipid PEG-DSG, 45/44/9/2
[12] = Table 5, PLK1-424 siRNA LNP, stealth lipid PEG-DSG, 45/44/9/2

SMILES | LS411 KD 3 × 3 mg/Kg ([1]; stealth lipid S010) | Size (nm) [2, 5] | Size (nm) [2, 6] | pKa ([3]; Table 4) | pKa ([3]; Table 5) | PDI [4, 7] | PDI [4, 8] | Size (nm) [2, 9] | PDI [4, 10] | LS411 KD 3 × 3 mg/Kg ([1]; stealth lipid PEG-DSG) | Size (nm) [2, 11] | PDI [4, 12]
CCCCC/C=C\C/C=C\CCCCCCCC(=O)OCCCOc1cc(CN(C)C)cc(OCCCOC(=O)CCCCCCC/C=C\C/C=C\CCCCC)c1 [Example 39] | 55% | 122.9 nm | 114.3 nm | 5.91 | 5.91 | 0.044 | 0.039 |  |  |  |  | 
CCCCCCCC(=O)OCCCCCCCCCCOc1cc(CN(C)C)cc(OCCCCCCCCCCOC(=O)CCCCCCC)c1 [Example 43] | 40% | 121.9 nm | 150.7 nm | 5.85 | 5.85 | 0.066 | 0.046 | 157.8 nm | 0.08 |  |  | 
CCCCCCCC(=O)OCCCCCCCCOc1cc(CN(C)C)cc(OCCCCCCCCOC(=O)CCCCCCC)c1 [Example 42] | 50% | 120 nm | 181.1 nm | 5.93 | 5.93 | 0.084 | 0.06 |  |  |  |  | 
CCCCC/C=C\C/C=C\CCCCCCCC(=O)OCCCCOc1cc(CN(C)C)cc(OCCCCOC(=O)CCCCCCC/C=C\C/C=C\CCCCC)c1 [Example 38] | 60% | 120 nm | 116.8 nm | 5.93 | 5.93 | 0.04 | 0.036 | 108.0 nm | 0.02 | 58% | 116.8 nm | 0.036
CCCCCCCCCC(=O)OCCCCCCCCOc1cc(CN(C)C)cc(OCCCCCCCCOC(=O)CCCCCCCCC)c1 [Example 52] | 50% | 145.4 nm | 132.2 nm | 5.96 | 5.96 | 0.052 | 0.06 | 109.4 nm | 0.1 | 69% | 132.2 nm | 0.06
CCCCC/C=C\C/C=C\CCCCCCCC(=O)OCCCCOc1cc(CN(C)C)cc(OCCCCOC(=O)CCCCCCC/C=C\CCCCCCCC)c1 [Example 63] |  |  |  | 5.92 | 5.9 | 0.057 |  |  |  | 66% |  | 0.047
